Source: patent US12234271B2 (Synthorx, Inc., priority 2019, dated 2025)

Tests used:
Treg cells = assay: pSTAT5 signaling in human LRS-derived PBMC samples, Treg cells (flow cytometry); type: cell-based; details: for Fold increase in Treg EC50 vs native IL-2: compared to native IL-2 run in each individual experiment; for Treg cells, dose response EC50 for pSTAT5 signaling: human LRS samples, from MFI plots; for CD8+/Treg ratio: ratio of pSTAT5 EC50, human LRS samples
Description: (§1) Conjugates of Table 3 were synthesized by modification of SEQ ID NO. 1.
(§2) These studies were performed at PrimityBio LLC (Fremont, CA).

CTLL-2 = CTLL-2 proliferation; type: cell-based; details: mouse CTLL-2
Description: FIG. 4A-FIG. 4B show the dose response curves for pSTAT5 signaling in human LRS primary cell (FIG. 4A) and proliferation response in mouse CTLL-2 populations (FIG. 4B).

NK cells = assay: pSTAT5 signaling in human LRS-derived PBMC samples, NK cells (flow cytometry); type: cell-based; details: from MFI plots
Description: as §1, §2

CD8+ Tcells = assay: pSTAT5 signaling in human LRS-derived PBMC samples, CD8+ T cells (flow cytometry); type: cell-based; details: from MFI plots
Description: as §1, §2

[1] = cited from earlier work
[2] = system: white blood cell count (WBC), lymphocyte count; assay: Hematology after single subcutaneous dose in Cynomolgus monkeys; type: in vivo, Cynomolgus monkey
Description: Each of the conjugates described below, except H16_30 kDa and H16_50 kDa, had SEQ ID NO: 4 in which the indicated amino acid position is substituted with the structure of Formula (II), Formula (III), or a mixture of Formula (II) and (III), and they contain a PEG chain of the indicated size. For example, the variant labeled “L19_30 kDa” has SEQ ID NO: 4 in which the amino acid at position L19 is replaced by the structure of Formula (II), Formula (III), or a mixture of Formula (II) and (III), and contains a 30 kDa, linear mPEG group. For the H16_30 kDa and H16_50 kDa variants, the compounds had SEQ ID NO: 4 in which the indicated amino acid position is substituted with the structure of Formula (IV), Formula (V), or a mixture of Formula (IV) and […] a linear, mPEG group having a molecular weight of 30 kDa or 50 kDa, respectively.
Blood samples were taken from each animal at the following time points: Samples for hematology: Day −1, Day 1 (Predose), 3, 6, 10, 15 and 22. Samples for pharmacokinetics and pharmacodynamics: (Predose), 0.5, 1, 2, 4, 8, 24, 36, 48, 72, 96, 120, 144, 168, and 240, 360, 528 (Day 22) hours post-dose. Cytokine sample collection and analysis: Day −1, and Day 1 (Predose), 8, 24, 72, 120 and 168, 360, and 528 (Day 22) hours post-dose.

IL-2 receptor beta gamma = target: T1, IL-2 receptor beta gamma (Homo sapiens, UniProt P14784+P31785); assay: PathHunter IL-2 Cytokine Receptor agonist assay, beta gamma; type: cell-based; details: U2OS PathHunter cells IL-2Rbeta/gamma; mass of IL-2 polypeptide only, without mPEG or linker
T1 construct: host or cells: U2OS (PathHunter)
T1 sequence (P14784 27-551): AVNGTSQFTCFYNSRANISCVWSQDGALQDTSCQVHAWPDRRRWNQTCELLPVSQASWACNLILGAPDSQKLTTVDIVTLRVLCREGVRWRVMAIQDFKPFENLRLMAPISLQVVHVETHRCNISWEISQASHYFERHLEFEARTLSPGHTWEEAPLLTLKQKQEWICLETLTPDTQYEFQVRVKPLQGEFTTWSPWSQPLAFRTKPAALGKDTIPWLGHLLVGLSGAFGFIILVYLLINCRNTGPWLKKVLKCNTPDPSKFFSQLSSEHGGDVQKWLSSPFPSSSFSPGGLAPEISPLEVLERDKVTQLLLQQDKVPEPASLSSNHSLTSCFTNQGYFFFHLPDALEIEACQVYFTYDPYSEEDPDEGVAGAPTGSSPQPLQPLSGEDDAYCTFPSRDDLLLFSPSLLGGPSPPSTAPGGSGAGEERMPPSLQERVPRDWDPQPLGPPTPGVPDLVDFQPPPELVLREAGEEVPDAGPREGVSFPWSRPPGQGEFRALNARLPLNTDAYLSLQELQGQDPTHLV
T1 sequence (P31785 23-369): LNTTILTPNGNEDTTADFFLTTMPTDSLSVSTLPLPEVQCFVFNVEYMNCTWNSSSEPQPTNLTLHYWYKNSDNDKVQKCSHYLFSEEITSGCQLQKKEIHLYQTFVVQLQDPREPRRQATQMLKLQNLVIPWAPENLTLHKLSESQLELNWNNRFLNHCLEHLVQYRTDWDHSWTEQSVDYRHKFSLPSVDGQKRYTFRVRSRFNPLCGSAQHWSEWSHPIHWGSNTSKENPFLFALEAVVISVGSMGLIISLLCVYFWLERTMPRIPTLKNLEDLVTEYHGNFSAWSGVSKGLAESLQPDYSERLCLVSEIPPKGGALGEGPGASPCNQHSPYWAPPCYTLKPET
Description: (§3) For example, the compounds labelled “D20_30” in this example is the compound having SEQ ID NO: 4 in which the structure of Formula (II), Formula (III), or a mixture of Formula (II) and (III) was substituted at the D20 residue (SEQ ID NO: 67) with a PEG group having a molecular weight of 30 kDa. Similarly, the following compounds were tested in this Example:
(§4) A second cell line was engineered to express the IL-2Ralpha subunit.
(§5) PathHunter cell lines were expanded from freezer stocks according to standard procedures. Cells were seeded in a total volume of 20 μL into white walled, 384-well microplates and incubated for the appropriate time prior to testing. […] Intermediate dilution of sample stocks was performed to generate 5× sample in assay buffer. About 5 μL of 5× sample was added to cells and incubated at 37° C. for a period of from 6 hours to 16 hours depending on the assay. Vehicle concentration was 1%. […] For some assays, activity was detected using a high sensitivity detection reagent (PathHunter Flash Kit) to improve assay performance. […] Microplates were read following signal generation with a PerkinElmer Envision instrument for chemiluminescent signal detection.
(§6) Compound activity was analyzed using CBIS data analysis suite software (ChemInnovation, CA).

[3] = target: T2, IL-2 receptor alpha beta gamma (Homo sapiens, UniProt P01589+P14784+P31785); assay: PathHunter IL-2 Cytokine Receptor agonist assay, alpha beta gamma; type: cell-based; details: U2OS PathHunter cells with IL-2Ralpha; mass of IL-2 polypeptide only, without mPEG or linker
T2 construct: host or cells: U2OS (PathHunter)
T2 sequence (P01589 22-272): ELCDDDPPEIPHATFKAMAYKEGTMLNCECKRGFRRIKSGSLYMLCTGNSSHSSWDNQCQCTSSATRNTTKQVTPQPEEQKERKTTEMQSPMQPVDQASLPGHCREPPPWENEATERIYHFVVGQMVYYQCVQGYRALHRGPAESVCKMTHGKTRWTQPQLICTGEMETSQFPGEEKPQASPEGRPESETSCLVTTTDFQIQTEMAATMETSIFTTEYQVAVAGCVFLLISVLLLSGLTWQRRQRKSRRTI
T2 sequence (P14784 27-551): T1 sequence (P14784 27-551)
T2 sequence (P31785 23-369): T1 sequence (P31785 23-369)
Description: as §3, §4, §5, §6

Substance | Fold increase in Treg EC50 vs native IL-2 (Treg cells) | Treg cells, dose response EC50 for pSTAT5 signaling (Treg cells) [pg/ml] | CD8+/Treg ratio (Treg cells) | CTLL-2 proliferation EC50 (CTLL-2) [ng/mL] | NK cells, dose response EC50 for pSTAT5 signaling (NK cells) [pg/ml] | CD8+ Tcells, dose response EC50 for pSTAT5 signaling (CD8+ Tcells) [pg/ml] | also measured
N88R: IL-2 variant of Table 3 labelled N88R, no PEG size given [reference compound] | 148 | 11082 | 1356 | 0.363 | 2312847 | 15025734 | –
human transferrin: 679 amino acid polypeptide that is about 80 kDa in size | – | – | – | – | – | – | half-life [1]: 170 to 288 h
N88_30kDa: SEQ ID NO: 4 with Formula (II), (III) or mixture at N88 (SEQ ID NO: 70), linear mPEG 30 kDa | – | – | – | – | – | – | Date at the peak of lymphocytes ([2]; 0.37 mg/kg single subcutaneous dose): 6 days post
H16_30kDa: SEQ ID NO: 4 with Formula (II), (III) or mixture at H16 (SEQ ID NO: 65), linear mPEG 30 kDa | – | – | – | – | – | – | Beta gamma EC50 (IL-2 receptor beta gamma): 5742 ng/mL; Alpha beta gamma EC50 [3]: 3.3 ng/mL
V91K: IL-2 variant of Table 3 labelled V91K, no PEG size given [reference compound] | 3 | 142 | 720 | 0.0995 | 20537 | 102255 | –
L19_30kDa: SEQ ID NO: 4 with Formula (II), (III) or mixture at L19 (SEQ ID NO: 66), 30 kDa linear mPEG | – | – | – | – | – | – | Date at the peak of lymphocytes ([2]; 0.03 mg/kg single subcutaneous dose): 6 days post; Date at the peak of lymphocytes ([2]; 0.16 mg/kg single subcutaneous dose): 6 days post
